From patent US8791267B2, “Biaryl PDE4 inhibitors for treating inflammatory, cardiovascular and CNS disorders” (Decode Genetics EHF, priority 2007, dated 2014)
Structures can show the parent of a compound that is named as a salt.

Tests used:
PDE4B = PDE4B (Homo sapiens, UniProt Q07343); experiment: In-vitro assay for PDE4 enzymes, real-time enzyme-coupled spectrophotometric assay, PDE4B Activity (Table 10); assay type: biochemical; settings: human PDE4B (hPDE4B), enzyme-coupled spectrophotometric assay; read-out: PDE4B Activity, hPDE4B
Chain of PDE4B (Q07343 whole entry): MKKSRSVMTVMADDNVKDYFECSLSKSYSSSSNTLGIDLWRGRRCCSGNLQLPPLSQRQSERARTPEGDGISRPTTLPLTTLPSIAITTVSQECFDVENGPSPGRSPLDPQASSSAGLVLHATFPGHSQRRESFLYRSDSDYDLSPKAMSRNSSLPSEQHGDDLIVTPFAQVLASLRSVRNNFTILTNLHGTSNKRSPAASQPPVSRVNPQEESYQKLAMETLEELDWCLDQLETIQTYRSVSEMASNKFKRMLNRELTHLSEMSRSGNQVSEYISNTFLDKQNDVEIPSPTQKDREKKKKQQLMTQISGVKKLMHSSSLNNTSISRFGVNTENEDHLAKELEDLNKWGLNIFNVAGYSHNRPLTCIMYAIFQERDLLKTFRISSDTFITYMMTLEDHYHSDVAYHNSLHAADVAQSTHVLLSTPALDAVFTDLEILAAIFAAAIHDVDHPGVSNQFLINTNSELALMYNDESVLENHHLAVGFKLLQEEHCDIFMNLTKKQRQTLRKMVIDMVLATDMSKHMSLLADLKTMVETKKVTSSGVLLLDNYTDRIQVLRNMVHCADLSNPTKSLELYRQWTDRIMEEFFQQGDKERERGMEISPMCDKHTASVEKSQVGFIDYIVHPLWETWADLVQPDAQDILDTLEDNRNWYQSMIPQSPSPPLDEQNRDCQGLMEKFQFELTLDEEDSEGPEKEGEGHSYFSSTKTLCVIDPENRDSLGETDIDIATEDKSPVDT

PDE4 = PDE4 (Homo sapiens, UniProt Q08499); experiment: In-vitro assay for PDE4 enzymes, real-time enzyme-coupled spectrophotometric assay (Table 9); assay type: biochemical; settings: human PDE4D; activity class, Table 9; read-out: hPDE4D
Chain of PDE4 (Q08499 whole entry): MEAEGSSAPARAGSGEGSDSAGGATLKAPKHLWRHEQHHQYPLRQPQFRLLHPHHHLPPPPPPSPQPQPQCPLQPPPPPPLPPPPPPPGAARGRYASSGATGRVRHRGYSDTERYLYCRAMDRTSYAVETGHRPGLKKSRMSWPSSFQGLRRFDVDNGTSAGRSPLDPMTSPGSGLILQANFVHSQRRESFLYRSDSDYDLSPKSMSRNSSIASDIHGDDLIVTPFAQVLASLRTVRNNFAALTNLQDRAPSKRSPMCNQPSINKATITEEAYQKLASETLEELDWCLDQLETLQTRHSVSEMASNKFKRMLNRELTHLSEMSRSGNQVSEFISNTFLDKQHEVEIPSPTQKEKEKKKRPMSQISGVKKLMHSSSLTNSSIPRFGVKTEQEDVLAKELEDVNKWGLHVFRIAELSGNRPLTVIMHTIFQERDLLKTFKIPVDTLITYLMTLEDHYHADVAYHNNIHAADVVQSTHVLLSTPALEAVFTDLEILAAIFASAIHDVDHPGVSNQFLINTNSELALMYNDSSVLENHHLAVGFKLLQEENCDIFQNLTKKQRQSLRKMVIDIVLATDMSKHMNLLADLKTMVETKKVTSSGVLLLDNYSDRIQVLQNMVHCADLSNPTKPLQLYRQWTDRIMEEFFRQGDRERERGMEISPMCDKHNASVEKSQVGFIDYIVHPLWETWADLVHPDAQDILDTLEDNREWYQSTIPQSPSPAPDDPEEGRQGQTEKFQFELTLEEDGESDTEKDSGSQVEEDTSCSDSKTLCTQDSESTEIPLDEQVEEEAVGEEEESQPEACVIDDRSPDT

An IC50 (PDE4B) of less than 5 µM and an IC50 (PDE4) of less than 5 µM were found for `CCNc1ccc(Cc2ccc(OC)c(-c3cccc(C(C)=O)c3)c2F)cn1` [P-339] in this work.
An IC50 (PDE4B) of less than 5 µM and an IC50 (PDE4) of less than 5 µM were found for `CCNC(=O)Nc1ccc(Cc2ccc(OC)c(-c3cccc(C#N)c3)c2F)cn1` [P-405, 1-[5-(3′-Cyano-2-fluoro-6-methoxy-biphenyl-3-ylmethyl)-pyridin-2-yl]-3-ethyl-urea hydrochloride salt] in this work.
An IC50 (PDE4B) of 5 to 20 µM and an IC50 (PDE4) of less than 5 µM were found for `COc1ccc(CN2CCN(C(N)=O)CC2)c(F)c1-c1cccc(Cl)c1` [P-370] in this work.
An IC50 (PDE4B) of less than 5 µM and an IC50 (PDE4) of less than 5 µM were found for `COc1ccc(Cc2ccc(OCCN(C)C)nc2)c(F)c1-c1cccc(Cl)c1` [P-588, {2-[5-(3′-Chloro-2-fluoro-6-methoxy-biphenyl-3-ylmethyl)-pyridin-2-yloxy]-ethyl}-dimethyl-amine] in this work.
An IC50 (PDE4B) of less than 5 µM and an IC50 (PDE4) of less than 5 µM were found for `COc1ccc(Cc2ccc(F)cc2)c(F)c1-c1cccc(Cl)c1` [P-187] in this work.
An IC50 (PDE4B) of 21 to 40 µM and an IC50 (PDE4) of 5 to 20 µM were found for `Cn1nccc1Cc1ccc(OC(F)F)c(-c2ccc3c(c2)OCO3)c1` [P-201, 5-(3-Benzo[1,3]dioxol-5-yl-4-difluoromethoxy-benzyl)-1-methyl-1H-pyrazole] in this work.
An IC50 (PDE4B) of less than 5 µM and an IC50 (PDE4) of less than 5 µM were found for `CNC(=O)NCc1ccc(Cc2ccc(OC)c(-c3cccc(Cl)c3)c2F)cn1` [P-460, 1-[5-(3′-Chloro-2-fluoro-6-methoxy-biphenyl-3-ylmethyl)-pyridin-2-ylmethyl]-3-methyl-urea hydrochloride] in this work.
An IC50 (PDE4B) of 5 to 20 µM and an IC50 (PDE4) of less than 5 µM were found for `COc1ccc(Cc2ccc(NS(C)(=O)=O)c(O)c2)c(F)c1-c1cccc(Cl)c1` [P-264] in this work.
An IC50 (PDE4B) of less than 5 µM and an IC50 (PDE4) of less than 5 µM were found for `COc1ccc(CNS(=O)(=O)c2ccc(NC(C)=O)cc2)c(F)c1-c1cccc(Cl)c1` [P-251, N-{4-[(3′-Chloro-2-fluoro-6-methoxy-biphenyl-3-ylmethyl)-sulfamoyl]-phenyl}-acetamide] in this work.
An IC50 (PDE4B) of less than 5 µM and an IC50 (PDE4) of less than 5 µM were found for `O=[N+]([O-])c1cccc(-c2cc(Cc3ccc(F)cc3)ccc2OC(F)F)c1` [P-067, 2-Difluoromethoxy-5-(4-fluoro-benzyl)-3′-nitro-biphenyl] in this work.
An IC50 (PDE4B) of less than 5 µM and an IC50 (PDE4) of less than 5 µM were found for `CCNC(=O)NCc1ccc(Cc2ccc(OC)c(-c3cccc(Cl)c3)c2)cn1` [P-597, 1-[5-(3′-chloro-6-methoxy-biphenyl-3-ylmethyl)-pyridin-2-ylmethyl]-3-ethyl-urea hydrochloride] in this work.
An IC50 (PDE4B) of less than 5 µM and an IC50 (PDE4) of 5 to 20 µM were found for `COc1ccc(Cn2nc3ccccn3c2=O)cc1-c1cccc([N+](=O)[O-])c1` [P-047, 2-(6-Methoxy-3′-nitro-biphenyl-3-ylmethyl)-2H-[1,2,4]triazolo[4,3-a]pyridin-3-one] in this work.
An IC50 (PDE4B) of less than 5 µM and an IC50 (PDE4) of less than 5 µM were found for `COc1ccc(Cc2ccc(C#N)nc2)cc1-c1cccc(Cl)c1` [P-590, 5-(3′-chloro-6-methoxy-biphenyl-3-ylmethyl)-pyridine-2-carbonitrile] in this work.
An IC50 (PDE4B) of 5 to 20 µM and an IC50 (PDE4) of less than 5 µM were found for `COc1ccc(Cn2cncn2)cc1-c1cccc(F)c1` [P-058, 1-(3′-Fluoro-6-methoxy-biphenyl-3-ylmethyl)-1H-[1,2,4]triazole] in this work.
An IC50 (PDE4B) of less than 5 µM and an IC50 (PDE4) of less than 5 µM were found for `COc1ccc(Cc2ccc(CNC(=O)N(C)C)nc2)c(F)c1-c1cccc(Cl)c1` [P-371, 3-[5-(3′-Chloro-2-fluoro-6-methoxy-biphenyl-3-ylmethyl)-pyridin-2-ylmethyl]-1,1-dimethyl-urea hydrochloride] in this work.
An IC50 (PDE4B) of less than 5 µM and an IC50 (PDE4) of less than 5 µM were found for `COc1ccc(CN2CCCCS2(=O)=O)cc1-c1cccc([N+](=O)[O-])c1` [P-035, 2-(6-Methoxy-3′-nitro-biphenyl-3-ylmethyl)-[1,2]thiazinane 1,1-dioxide] in this work.
An IC50 (PDE4B) of less than 5 µM and an IC50 (PDE4) of less than 5 µM were found for `CNc1ccc(Cc2ccc(OC)c(-c3cccc(C(C)=O)c3)c2F)cc1` [P-331, [4-(3′-Acetyl-2-fluoro-6-methoxy-biphenyl-3-ylmethyl)-phenyl]-methyl-amine hydrochloride] in this work.
